Data on seven compounds can be found in paper PMC11413682 (Acta Pharmaceutica Sinica. B, 2024).

For this assay, the target named is T1, CUL2^ZYG11B (residues 490–728) (Homo sapiens, UniProt Q9C0D3).
T1 construct: PCR was used to amplify CUL2^ZYG11B (residues 490–728); 6×His-SUMO (TEV-cleavable) (N, cleaved yes); made in house; host or cells: E. coli
As to the kind of experiment: ITC binding of ORF10 NTE synthetic peptides to CUL2^ZYG11B.

[1] abbreviates: figure panels, […], repeated 3 times, read-out: Kd.

Like-named read-outs stand apart in the source and are kept apart here. Residues, ends and D or L forms follow the SMILES beside them. No end group written: not given here.

T1 sequence (Q9C0D3 490-728): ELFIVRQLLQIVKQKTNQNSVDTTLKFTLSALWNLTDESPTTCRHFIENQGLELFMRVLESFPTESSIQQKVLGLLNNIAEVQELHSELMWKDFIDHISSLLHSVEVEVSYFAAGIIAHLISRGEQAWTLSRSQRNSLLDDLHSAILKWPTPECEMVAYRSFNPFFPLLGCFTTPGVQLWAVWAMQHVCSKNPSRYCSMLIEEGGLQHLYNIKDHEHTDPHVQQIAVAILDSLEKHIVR

As usually defined, the Kd is the concentration at which binding is half-saturated. For the compound GAINV [SARS-2 ORF10 N5-Y2A], under setting [1], the dissociation constant Kd was found to be 25.2 µM.
For `CC[C@H](C)[C@H](NC(=O)[C@H](Cc1ccc(O)cc1)NC(=O)CN)C(=O)O` [SARS-2 ORF10 N3] (H-Gly-Tyr-Ile-OH), the equilibrium dissociation constant (Kd) under setting [1] is 14.5 µM.
In turn, `NCC(=O)N[C@@H](Cc1ccc(O)cc1)C(=O)O` [SARS-2 ORF10 N2] (H-Gly-Tyr-OH; N-terminus and C-terminus assumed) displayed a Kd of more than 200 µM. Also, the “binding to CUL2^ZYG11B (in words)” value (ITC) is reported as “did not bind”. Moreover, under “Table S4, ITC”, the “N, stoichiometry” value turned out to be 5.05 and the “ΔS, entropy variation” value is 6.52 cal/mole/deg.
On to “GFWCR [SNX11-degron-5, reference compound]”, for which, for the setting “Table S4, ITC, MicroCal iTC200, peptide 0.5–1 mmol/L in syringe, protein 0.03 mmol/L in cell, 18 x 2 μL injections, repeated 3 times, Kd calculated as 1/Ka, read-out: Kd”, the Kd is 0.4 µM.
Compound SYINV [SARS-2 ORF10 N5-G1S] gave a Kd of 13.2 µM.
With `CC[C@H](C)[C@H](NC(=O)[C@H](Cc1ccc(O)cc1)NC(=O)CN)C(=O)N[C@@H](CC(N)=O)C(=O)O` [SARS-2 ORF10 N4] (H-GYIN-OH), the Kd under setting [1] stood at 5.18 µM.
In the case of “GPINV [SARS-2 ORF10 N5-Y2P, altered peptide derived from SARS-CoV-2 ORF10 N5, Y2P]”, the “binding to CUL2^ZYG11B (in words)” value (ITC) is “disrupted binding completely”.
